The values below come from patent US20160045449A1, “Formulations and Methods for Attenuating Respiratory Depression Induced by Opioid Overdose” (Alpharma Pharmaceuticals LLC, priority 2010, published 2016).

Structures can show the parent of a compound that is named as a salt.

The conditions of series [1]: in comparison to a 15 mg dose of hydrocodone.
For series [2] the following is noted: after oral administration; cited from earlier work.
For series [3] the following is noted: cited from earlier work.
Series [4] is described as follows: Example 4: six-way crossover study, naltrexone (12% w/w) on oxycodone-induced euphoria, with pulse oximetry (SpO2). The format is in vivo, human. From the text: As a safety component of this study, pulse oximetry was monitored routinely to monitor for signs and symptoms of oxycodone-induced respiratory depression.
For series [5] the following is noted: cited from earlier work. The source holds these as a separate data set.
The conditions of series [6]: patients; versus equivalent dose of morphine; cited from earlier work.

Regarding `COc1ccc2c3c1O[C@H]1[C@@H](O)C=C[C@H]4[C@@H](C2)N(C)CC[C@@]341` [codeine], the equianalgesic calculated dose in series [1] is listed as 90.0 mg.
Consider `C[C@H]1[C@H]2Cc3ccc(O)cc3[C@]1(C)CCN2CC1CC1` [cyclazocine], for which, in series [2], the duration of action was about 24 h.
For the molecule `COc1ccc2c3c1OC1C(=O)CC[C@H]4[C@@H](C2)N(C)CC[C@]314` (stereo partly shown) [hydrocodone, 4,5-epoxy-3-methoxy-17-methylmorphinan-6-one], the equianalgesic calculated dose in series [1] is listed as 15.0 mg.
Same read-out and setting: as for `CN1CC[C@]23CCCC[C@H]2[C@H]1Cc1ccc(O)cc13` [levorphanol], the figure is 1.8 mg; as for `CCC(=O)C(CC(C)N(C)C)(c1ccccc1)c1ccccc1` (stereo not shown) [methadone], 9.0 mg.
Turning to `O=C1CC[C@@]2(O)[C@H]3Cc4ccc(O)c5c4[C@@]2(CCN3CC2CC2)[C@H]1O5` [naltrexone HCl, naltrexone hydrochloride], the solubility in water entry in series [3] is recorded as “about 100 mg/cc”.
With `O=C1CC[C@@]2(O)[C@H]3Cc4ccc(O)c5c4[C@@]2(CCN3CC2CC2)[C@H]1O5` [naltrexone], the “effect on euphoric effects of oxycodone” value in series [4] (oral oxycodone 60 mg + naltrexone 7.2 mg (12%)) is “abating the euphoric effects of oxycodone 60 mg”. The “effect on respiratory depressant effects of oxycodone (SpO2, pulse oximetry)” value in series [4] (oral oxycodone 60 mg + naltrexone 7.2 mg (12%) vs oxycodone 60 mg and placebo, opioid-experienced adult subjects) is “attenuated the respiratory depressant effects of oxycodone”. For the same molecule, the duration of action in series [2] was about 24 h. In addition, the “time of absorption following oral administration (rapidly absorbed)” value in series [5] is at most 1 h. Also, the oral bioavailability in series [5] (oral administration) is given as 5-40%.
Consider `COc1ccc2c3c1O[C@H]1C(=O)CC[C@@]4(O)[C@@H](C2)N(C)CC[C@]314` [oxycodone], for which the equianalgesic calculated dose in series [1] is 13.5 mg. In series [6], the “extent and speed of onset of induced respiratory depression” value was “dose dependent and greater than an equivalent dose of morphine”.
